What was measured:
[1] = test system: C. albicans (strain SC-5134); experiment: FITC-labeled Annexin V staining of protoplasts (phosphatidylserine externalization); type: cell-based, Candida albicans; details: positive controls: 20 mM H2O2 or 60 μM acetic acid, 4 hr
Description: Cells were then incubated for 4 hr before staining with FITC-labeled Annexin V. FIG. 4(a) provides confocal images of FITC-labeling of cells that had been treated with H2O2 or Pc 4-PDT. Scale bar, 20 μm. FIG. 4(b) provides a bar graph showing the results. For each experiment over 50-100 protoplasts cells were counted per sample. […] Cells were counted by eye using a Zeiss AxiovertTM S100 inverted epifluorescence microscope. Values represent the mean±S.E. from at least three independent experiments. […] Apoptosis Analyses: (A) FITC-labeled Annexin V staining-To assess the externalization of phosphatidylserine, protoplasts of C. albicans were stained with FITC-labeled Annexin V using the Annexin V-FLUOS staining kit (Roche, Germany) with minor modifications. Madeo et al., J Cell Biol 139:729-734 (1997); Park et al., Biochem Biophys Res Commun 394:170-172 (2010). Briefly, control and treated cells were washed three times with 1× PBS before incubating at 37° C. for 30 min in a protoplasting solution (50 mM KH2PO4, 5 mM EDTA and 50 mM DTT). Then cells were digested at 37° C. for 45 min in an enzyme solution (50 mM K2HPO4, 40 mM 2-mercaptoethanol, 3 μg/mL Chitinase, 1.8 μg/mL […], 0.15 mg/mL Zymolyase and 2.4 M sorbitol). 1× PBS was added to each sample and incubated for 30 min at room temperature in all experiments. Protoplasts were then incubated with 100 μL of Annexin V-FLUOS labeling solution for 15 min at 25° C. FITC-labeled Annexin V fluorescence was detected by both widefield (Leica DMI6000B microscope; Leica Microsystems, Inc., Bannockburn, Ill., USA) and confocal fluorescence microscopy.

[2] = test system: C. albicans (strain SC-5134); experiment: Chromatin condensation by confocal microscopy; type: cell-based, Candida albicans; details: highest dose of Pc 4-PDT or peroxide, 24 hr after treatment
Description: Confocal Microscopy: To investigate the uptake and localization of Pc 4, cells in standard growth medium plus 10% Fetal Bovine Serum (FBS) were loaded with 0.2 μM Pc 4 and incubated for 16 to 18 hr. Thirty minutes prior to imaging Pc 4, 50 nM MitoTracker Red (Invitrogen, Carlsbad, Calif., USA) or 50 μg/mL AlexaFluor 488-conjugated Concanavalin (Con) A (Invitrogen, Carlsbad, Calif., USA) and/or 10 μg/mL Hoechst 33342 (Invitrogen, Carlsbad, Calif., USA) was loaded onto cells. Five to 10 μL of stained cells were placed on a slide with a glass coverslip and all images acquired using an UltraVIEW VoX spinning disk confocal system (PerkinElmer, Waltham, Mass., USA), which was mounted on a Leica DMI6000B microscope (Leica Microsystems, Inc., Bannockburn, Ill., USA) equipped with a HCX PL APO 100×/1.4 oil immersion objective. Confocal images of Pc 4 fluorescence, MitoTracker Red, ConA (or FITC-labeled Annexin V) and Hoechst 33342 were collected using solid-state diode lasers, with 640-nm, 561-nm, 488-nm and 405-nm excitation light, respectively, and with appropriate emission filters.

## OO [H2O2, hydrogen peroxide, reference compound]
[1]
  Annexin V positive cells: ~27%
[2]
  chromatin condensation: detected

## CC(=O)O [acetic acid]
[1]
  Annexin V positive cells: ~27%

Reference: US20120265121A1, “PHTHALOCYANINE-BASED ANTIFUNGAL AGENTS” (CASE WESTERN RESERVE UNIVERSITY, priority 2011, published 2012)
